The values that follow come from EP4245365B1, “A FXR SMALL MOLECULE AGONIST, THE PREPARATION AND USE THEREOF” (Cascade Pharmaceuticals, Inc., priority 2022, dated 2023).

In data set [1] the target is T1, FXR (Homo sapiens, UniProt Q96RI1).
T1 construct: expressed in transfected cells; host or cells: HEK293T
T1 sequence (Q96RI1 212-476 isoform Q96RI1-1): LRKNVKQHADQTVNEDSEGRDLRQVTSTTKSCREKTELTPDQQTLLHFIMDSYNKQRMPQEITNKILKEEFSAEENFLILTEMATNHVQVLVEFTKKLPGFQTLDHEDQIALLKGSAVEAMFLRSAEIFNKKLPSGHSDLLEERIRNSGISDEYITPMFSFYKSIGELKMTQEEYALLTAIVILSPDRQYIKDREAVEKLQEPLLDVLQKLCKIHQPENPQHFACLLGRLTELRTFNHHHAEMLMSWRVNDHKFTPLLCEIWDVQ
Nature of the data set: FXR agonistic activity by reporter gene (pGAL4-FXR-LBD / pG5-Luc, Dual-Glo luciferase) in HEK293T cells. It counts as cell-based. The method, then:
1.2 Plasmid Co-transfection of HEK293T Cells and Compound Treatment HEK293T cells were seeded in 96-well plates at a density of 1×10^4/well one day before plasmid transfection. […] 2 duplicate wells were set up in total. […] The dose-response curves were fitted with four parameters using GraphPad Prism 6.0 software, and EC50 values were calculated.

A short description of data set [2]: in vivo. The note with it: mouse, po, 3 mg/kg.
Method: (§1) In each group of embodiment, 6 male ICR mice with a similar body weight were selected, of which 3 mice were dosed orally in a single dose of 3 mg/kg, and 3 mice were dosed intravenously in a single dose of 1 mg/kg. Blood samples were collected at time points of 15 min, 30 min, 1 h, 2 h, 4 h and 7 h after administration. The concentrations of plasma samples were analyzed by LC-MS/MS.
(§2) 12 healthy male ICR mice, commercially available from Charles River with an animal production license NO.: 2021123 1Abzz0619000376, were divided into 4 groups, 3 in each group.
(§3) Formulation preparation: a certain amount of compounds were weighed and added into a 2% DMSO+15% Solutol+83% saline, to prepare a clear solution.
(§4) Dosage: ICR mice were fasted overnight and given each compound at an oral dose of 3 mg/kg or an intravenous dose of 1 mg/kg. The administrated volume for oral and intravenous administration are 10 mL/kg and 5 mL/kg, respectively.
(§5) Sample collection: About 30 µL of blood was collected via great saphenous vein at 15 min, 30 min, 1 h, 2 h, 4 h and 7 h after dosage. The blood was placed into a commercial tube containing K2-EDTA. Plasma samples were then obtained by centrifuging the blood samples at approximately 4°C, 4600 rpm for 5 minutes. All plasma samples were then quickly frozen on dry ice and kept at -70°C until LC-MS/MS analysis.
(§6) Sample preparation: 10 µL of plasma samples were precipitated by methanol containing 50 nmol/L of α-naphthoflavone as internal standard. The mixture was votex-mixed well and centrifuged at 14000 rpm for 5 min at 4°C. 75 µL of the supernatant was taken and mixed with 75 µL of methanol, and introduced for LC-MS/MS analysis.
The conditions of data set [3]: mouse, in vivo, iv, 1 mg/kg.
Method: as §1, §2, §3, §4, §5, §6
Setting [4] is: Cellular Level Activity EC50(nM) of FXR, HEK293T cells co-transfected with pGAL4-FXR-LBD, pG5-Luc, phRL-TK, 24 h treatment.
Where [5] appears, read: HEK293T cells co-transfected with pGAL4-FXR-LBD, pG5-Luc, phRL-TK, 24 h treatment, read-out: Cellular Level Activity EC50(nM) of FXR.
Where [6] appears, read: HEK293T reporter gene assay, read-out: EC50 values (FXR agonistic activity).
Setting [7] is: EC50 values (FXR agonistic activity), HEK293T reporter gene assay.

Read-outs that look alike come from different tables or passages of the source. Some results are limits rather than exact numbers.

Take `O=c1[nH]c(-c2ccc(N3[C@@H]4CC[C@H]3C[C@@H](OCc3c(-c5c(Cl)cccc5Cl)noc3C3CC3)C4)cc2F)no1` [Control 1, reference compound]: in data set [1] (setting [4]), the EC50 was in the range of 5 to 10 nM.

Turning to `O=c1[nH]c(-c2ccc(N3C4CCC3CC(OCc3c(-c5ccccc5C(F)(F)F)noc3C3CC3)C4)cc2F)no1` (stereo not shown) [Embodime nt 1], in data set [2], the area under the curve AUC(0-t) at 7 h was 318 ± 172 ng·h/mL, the peak level (Cmax) was 312 ± 140 ng/mL and the bioavailability came out at 12.6%. Besides, in data set [3], the “CL_obs” value worked out at 20.5 ± 4.6 mL/min/kg and the “Vss_obs” value was 418 ± 76 mL/kg.

In data set [2], `[2H]C([2H])(O[C@H]1C[C@H]2CC[C@@H](C1)N2c1ccc(-c2noc(=O)[nH]2)c(F)c1)c1c(-c2ccccc2C(F)(F)F)noc1C1CC1` [Embodime nt 2] yielded an AUC(0-t) at 7 h of 587 ± 54 ng·h/mL, a Cmax of 555 ± 25 ng/mL and a bioavailability of 25.2%. In data set [3], the “CL_obs” value came to 21.6 ± 2.4 mL/min/kg and the “Vss_obs” value stood at 704 ± 33 mL/kg.

On to `[2H]C([2H])(OC1CC2CCC(C1)N2c1ccc(-c2noc(=O)[nH]2)cc1)c1c(-c2c(Cl)cccc2Cl)noc1C1CC1` (stereo not shown) [Example 1], for which the 50% effective concentration (EC50) in data set [1] (setting [5]) and in data set [1] (setting [6]) was less than 5 nM in each case.

As to `[2H]C([2H])(OC1CC2CCC(C1)N2c1ccc(-c2noc(=O)[nH]2)nc1)c1c(-c2c(Cl)cccc2Cl)noc1C1CC1` (stereo not shown) [Example 2], the EC50 in data set [1] (setting [5]) and in data set [1] (setting [6]) was less than 5 nM each time.

`[2H]C([2H])(OC1CC2CCC(C1)N2c1ccc(-c2noc(=O)[nH]2)c(F)c1)c1c(-c2c(Cl)cccc2Cl)noc1C1CC1` (stereo not shown) [Example 3]: the EC50 in data set [1] (setting [4]) and in data set [1] (setting [7]) was less than 5 nM throughout. For the same molecule, the “FXR agonistic activity / cellular level activity (in words)” value in data set [1] (HEK293T reporter gene assay, comparison with LJN452 and Control 1) is “significantly improved activity”.

Turning to `[2H]C(OC1CC2CCC(C1)N2c1ccc(-c2noc(=O)[nH]2)c(F)c1)c1c(-c2c(Cl)cccc2Cl)noc1C1CC1` (stereo not shown) [Example 4], the EC50 in data set [1] (setting [4]) and in data set [1] (setting [7]) was less than 5 nM in each case.

Consider `[2H]C([2H])(OC1CC2CCC(C1)N2c1ccc(-c2noc(=O)[nH]2)c(C)c1)c1c(-c2c(Cl)cccc2Cl)noc1C1CC1` (stereo not shown) [Example 5], for which the EC50 in data set [1] (setting [5]) was 5 to 10 nM.

As to `[2H]C([2H])(OC1CC2CCC(C1)N2c1ccc(-c2noc(=O)[nH]2)c(OC)c1)c1c(-c2c(Cl)cccc2Cl)noc1C1CC1` (stereo not shown) [Example 6], the EC50 in data set [1] (setting [5]) is 5 to 10 nM.

`[2H]C([2H])(OC1CC2CCC(C1)N2c1ccc(-c2noc(=O)[nH]2)c(C(F)(F)F)c1)c1c(-c2c(Cl)cccc2Cl)noc1C1CC1` (stereo not shown) [Example 7]: the EC50 in data set [1] (setting [5]) lay within 5 to 10 nM.

For the molecule `[2H]C([2H])(OC1CC2CCC(C1)N2c1ccc(-c2noc(=O)[nH]2)c(F)c1)c1c(-c2ccccc2C(F)(F)F)noc1C1CC1` (stereo not shown) [Example 8], the EC50 in data set [1] (setting [5]) is 5 to 10 nM.

In the case of `[2H]C([2H])(OC1CC2CCC(C1)N2c1ccc(-c2noc(=O)[nH]2)c(F)c1)c1c(-c2ccccc2OC(F)(F)F)noc1C1CC1` (stereo not shown) [Example 9], in data set [1] (setting [5]), the EC50 lay within 5 to 10 nM.
